Measurements reported in patent publication US11918662B2, “Heterocyclic compounds and imaging agents for imaging huntingtin protein” (CHDI Foundation, Inc., priority 2020, dated 2024).

The compounds below were run against T1, MBP-HTT(1-89)Q46-His(6×) (“Exon1-Q46”) protein aggregates (Homo sapiens, UniProt P42858, INS38QQQQQQQQQQQQQQQQQQQQQQQQQ) (assay: Exon1-Q46 Radioligand Binding Assay). Conditions: displacement of 0.3 nM [3H3-methyl]-5-((5-methoxypyridin-2-yl)methoxy)-2-(pyrazin-2-yl)benzo[d]oxazole from 1 μM aggregated Exon1-Q46, 60 minutes at 37° C.; read-out: Potency Range (IC50).
T1 construct: MBP-HTT(1-89)Q46-His(6×); His(6×) (C); made in house
Method: Exon1-Q46 Radioligand Binding Assay
For experiments 30 μM MBP-Exon1-Q46 was incubated with 150 μg/mL thrombin in assay buffer (150 mM NaCl, 50 mM Tris pH 8.0) and 2 mM CaCl2 for 16 hours at 37° C. Aggregated Exon1-Q46 was pelleted by centrifugation for 5 minutes at 13,000 rpm in a bench top centrifuge and re-dissolved in the same volume of assay buffer. […] For the RBA, Q46 protein aggregates and test compounds were pre-incubated in assay buffer for 20 minutes at room temperature, in 100 μL/well in a 96-well plate (pp, round bottom). Then, ligand was added in 50 μL/well and incubated for 60 minutes at 37° C. Final assay concentrations were […] test compound, 1 μM Exon1-Q46 protein (equivalent monomer concentration) and 0.3 nM ligand [^3H3-methyl]-5-((5-methoxypyridin-2-yl)methoxy)-2-(pyrazin-2-yl)benzo[d]oxazole. Samples were transferred onto GF/B filter plates and washed 2× with 200 μL PBS using a Filtermate Harvester. After drying filter plates for 1 hour at 55° C., the back of the plates were sealed with foil and 30 μL/well scintillation fluid (Packard MicroScint 40) added, incubated for 15 minutes in the dark and counted in a MicroBeta reader. […] IC50 values were determined with a sigmoidal inhibition model with four variables (top, bottom, slope, IC50) in a global fit using the normalized replicate data.

T1 sequence (P42858 with tags, fused parts or gaps with the stated changes limits assumed): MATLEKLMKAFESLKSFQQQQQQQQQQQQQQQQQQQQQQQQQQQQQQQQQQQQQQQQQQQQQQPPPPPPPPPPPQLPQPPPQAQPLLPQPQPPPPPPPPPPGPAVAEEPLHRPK

Compound	IC50
Cc1ccc(NC(=O)CCCn2c(=O)c3cccn3c3cnccc32)cc1 [Example 6-1]	< 100 nM
COc1ccc(NC(=O)CCCn2c(=O)c3cccn3c3cnccc32)cc1 [Example 6-2]	< 100 nM
COc1cccc(NC(=O)CCCn2c(=O)c3cccn3c3cnccc32)c1 [Example 6-3]	< 100 nM
COc1ccc(NC(=O)CCCn2c(=O)c3cccn3c3cnccc32)nc1 [Example 6-4]	< 100 nM
COc1ccnc(NC(=O)CCCn2c(=O)c3cccn3c3cnccc32)c1 [Example 6-5]	< 100 nM
COc1ccc(NC(=O)CCn2c(=O)c3ccc(Cl)n3c3ccc(F)cc32)nc1 [Example 7-1]	< 100 nM
COc1ccc(NC(=O)CCn2c(=O)c3ccnn3c3ccc(F)cc32)nc1 [Example 8-1, 3-{7-Fluoro-4-oxo-4H,5H-pyrazolo[1,5-a]quinoxalin-5-yl}-N-(5-methoxypyridin-2-yl)propanamide]	< 100 nM
O=C(CCn1c(=O)c2ccnn2c2ccc(F)cc21)Nc1ccccc1F [Example 8-2]	< 100 nM
COc1ncccc1NC(=O)CCn1c(=O)c2ccnn2c2ccc(F)cc21 [Example 8-3]	< 100 nM
O=C(CCn1c(=O)c2ccnn2c2ccc(F)cc21)N1CCc2ncccc21 [Example 8-4]	< 100 nM
COc1ccccc1NC(=O)CCn1c(=O)c2ccnn2c2ccc(F)cc21 [Example 8-5]	< 100 nM
O=C(CCn1c(=O)c2ccnn2c2ccc(F)cc21)N1CCc2cnccc21 [Example 8-6]	< 100 nM
O=C(CCn1c(=O)c2ccnn2c2ccc(F)cc21)Nc1ccncc1F [Example 8-7]	< 100 nM
O=C(CCn1c(=O)c2ccnn2c2ccc(F)cc21)N1Cc2cccnc2C1 [Example 8-8]	< 100 nM
Cc1cccc(NC(=O)CCn2c(=O)c3ccnn3c3ccc(F)cc32)n1 [Example 8-9]	< 100 nM
Cc1ccc(NC(=O)CCn2c(=O)c3ccnn3c3ccc(F)cc32)nc1 [Example 8-10]	< 100 nM
Cc1ccnc(NC(=O)CCn2c(=O)c3ccnn3c3ccc(F)cc32)c1 [Example 8-11]	< 100 nM
O=C(CCn1c(=O)c2ccnn2c2ccc(F)cc21)Nc1ccc(F)cn1 [Example 8-12]	< 100 nM
O=C(CCn1c(=O)c2ccnn2c2ccc(F)cc21)N1CCc2ccncc21 [Example 8-13]	< 100 nM
COc1ncccc1NC(=O)CCn1c(=O)c2cnn(C)c2c2ccc(F)cc21 [Example 9-1]	< 100 nM
Cn1ncc2c(=O)n(CCC(=O)N3CCc4ccccc43)c3cc(F)ccc3c21 [Example 9-2]	< 100 nM
COc1ccccc1NC(=O)CCn1c(=O)c2cnn(C)c2c2ccc(F)cc21 [Example 9-3]	< 100 nM

Compound	IC50
Cn1ncc2c(=O)n(CCC(=O)N3Cc4cccnc4C3)c3cc(F)ccc3c21 [Example 9-4]	< 100 nM
Cn1ncc2c(=O)n(CCC(=O)N3CCc4ncccc43)c3cc(F)ccc3c21 [Example 9-5]	< 100 nM
COc1ccncc1NC(=O)CCn1c(=O)c2cnn(C)c2c2ccc(F)cc21 [Example 9-6]	< 100 nM
Cn1ncc2c(=O)n(CCC(=O)Nc3ccncc3F)c3cc(F)ccc3c21 [Example 9-7]	< 100 nM
Cn1ncc2c(=O)n(CCC(=O)N3Cc4ccccc4C3)c3cc(F)ccc3c21 [Example 9-8]	< 100 nM
Cn1ncc2c(=O)n(CCC(=O)N3CCc4ccncc43)c3cc(F)ccc3c21 [Example 9-9]	< 100 nM
Cn1ncc2c(=O)n(CCC(=O)N3CCc4cnccc43)c3cc(F)ccc3c21 [Example 9-10]	< 100 nM
Cn1ncc2c(=O)n(CCC(=O)Nc3ccccc3F)c3cc(F)ccc3c21 [Example 9-11]	< 100 nM
Cn1ncc2c(=O)n(CCC(=O)N3Cc4ccncc4C3)c3cc(F)ccc3c21 [Example 9-12]	< 100 nM
Cn1ncc2c(=O)n(CCC(=O)Nc3cccc(F)c3F)c3cc(F)ccc3c21 [Example 9-13]	< 100 nM
Cn1ncc2c(=O)n(CCC(=O)N3CCc4ccccc4C3)c3cc(F)ccc3c21 [Example 9-14]	< 100 nM
Cn1ncc2c(=O)n(CCC(=O)Nc3cc(Cl)ccc3F)c3cc(F)ccc3c21 [Example 9-15]	< 100 nM
Cn1ncc2c(=O)n(CCC(=O)Nc3ccc(Cl)cc3F)c3cc(F)ccc3c21 [Example 9-16]	< 100 nM
Cn1ncc2c(=O)n(CCC(=O)Nc3ccccc3Cl)c3cc(F)ccc3c21 [Example 9-17]	< 100 nM
Cn1ncc2c(=O)n(CCC(=O)Nc3ccc(F)cc3F)c3cc(F)ccc3c21 [Example 9-18, N-(2,4-Difluorophenyl)-3-(7-fluoro-1-methyl-4-oxo-pyrazolo[4,3-c]quinolin-5-yl)propanamide]	< 100 nM
Cn1ncc2c(=O)n(CCC(=O)Nc3cccc(Cl)c3F)c3cc(F)ccc3c21 [Example 9-19]	< 100 nM
COc1ccc(NC(=O)CCn2c(=O)c3cnn(C)c3c3ccc(F)cc32)c(F)c1 [Example 9-20]	< 100 nM
Cn1ncc2c(=O)n(CCC(=O)Nc3cc(F)ccc3F)c3cc(F)ccc3c21 [Example 9-21]	< 100 nM
Cn1ncc2c(=O)[nH]c3cc(F)ccc3c21 [Example 9-22]	< 100 nM
COc1ccc(NC(=O)CCn2c(=O)c3cnn(C)c3c3ccc(F)cc32)nc1 [Example 9-23]	< 100 nM
C[C@@H]1CN(C(=O)CCn2c(=O)c3cnn(C)c3c3ccc(F)cc32)C[C@H]1C [Example 9-24]	< 100 nM
Cc1cccc(NC(=O)CCn2c(=O)c3cnn(C)c3c3ccc(F)cc32)c1F [Example 9-25]	< 100 nM

Compound	IC50
Cc1nn(C)c2c1c(=O)n(CCC(=O)Nc1ccc(F)cc1F)c1cc(F)ccc21 [Example 9-26]	< 100 nM
Cc1nn(C)c2c1c(=O)n(CCC(=O)Nc1ccccc1F)c1cc(F)ccc21 [Example 9-27]	< 100 nM
COc1ccc(NC(=O)CCn2c(=O)c3cn(C)nc3c3ccc(F)cc32)nc1 [Example 9-28]	< 100 nM
Cn1ncc2c(=O)n(CCC(=O)Nc3ccc(F)cc3)c3cc(F)ccc3c21 [Example 9-29]	< 100 nM
Cn1ncc2c(=O)n(CCC(=O)Nc3cccc(F)c3)c3cc(F)ccc3c21 [Example 9-30]	< 100 nM
Cn1ncc2c(=O)n(CCC(=O)O)c3cc(F)ccc3c21 [Example 9-31]	500 to 10000 nM
O=C(CCn1c(=O)c2cccn2c2ccc(F)cc21)Nc1ccc(O)cn1 [Example 10-1, 3-{7-Fluoro-4-oxo-4H,5H-pyrrolo[1,2-a]quinoxalin-5-yl}-N-(5-hydroxypyridin-2-yl)propanamide]	< 100 nM
COc1ccc(OCCCn2c(=O)c3cccn3c3ccc(F)cc32)nc1 [Example 11-1, 7-Fluoro-5-{3-[(5-methoxypyridin-2-yl)oxy]propyl}-4H,5H-pyrrolo[1,2-a]quinoxalin-4-one]	< 100 nM
Cc1ccc(C(=O)NCCn2c(=O)c3cccn3c3ccc(F)cc32)cc1 [Example 12-1, N-[2-(7-Fluoro-4-oxo-pyrrolo[1,2-a]quinoxalin-5-yl)ethyl]-4-methyl-benzamide]	< 100 nM
Cc1ccc(C(=O)NCCCn2c(=O)c3cccn3c3ccc(F)cc32)cc1 [Example 12-2]	< 100 nM
O=c1c2cccn2c2ccc(F)cc2n1CCN1CCc2ccccc2C1 [Example 13-1, 7-Fluoro-5-[2-(1,2,3,4-tetrahydroisoquinolin-2-yl)ethyl]-4H,5H-pyrrolo[1,2-a]quinoxalin-4-one]	< 100 nM
O=c1c2cccn2c2ccc(F)cc2n1CCCN1CCc2ccccc2C1 [Example 13-2]	< 100 nM
COc1ccc(C(=O)NCCn2c(=O)c3cccn3c3ccccc32)nc1 [Example 14-1, 5-Methoxy-N-(2-{4-oxo-4H,5H-pyrrolo[1,2-a]quinoxalin-5-yl}ethyl)pyridine-2-carboxamide]	< 100 nM
COc1ccc(C(=O)NCCn2c(=O)c3cccn3c3ccc(F)cc32)nc1 [Example 14-2]	< 100 nM
Cn1nc(C(=O)NCCn2c(=O)c3cccn3c3ccc(F)cc32)ccc1=O [Example 15-1]	< 100 nM
Cn1ncc2c(=O)n(CCNC(=O)c3ccc(F)cc3F)c3cc(F)ccc3c21 [Example 16-1]	< 100 nM
Cn1ncc2c(=O)n(CCNC(=O)c3ccccc3F)c3cc(F)ccc3c21 [Example 16-2]	< 100 nM
COc1ccc(CCCn2c(=O)c3cccn3c3ccc(F)cc32)cn1 [Example 18-1, 7-Fluoro-5-[3-(6-methoxy-3-pyridyl)propyl]pyrrolo[1,2-a]quinoxalin-4-one]	< 100 nM
O=C(CCn1c(=O)c2cn[nH]c2c2ccc(F)cc21)Nc1ccc(F)cc1F [Example 19-1, N-(2,4-Difluorophenyl)-3-(7-fluoro-4-oxo-1H-pyrazolo[4,3-c]quinolin-5-yl)propanamide]	< 100 nM
[2H]C([2H])([2H])n1ncc2c(=O)n(CCC(=O)Nc3ccc(F)cc3F)c3cc(F)ccc3c21 [Example 19-3]	< 100 nM
[2H]C([2H])([2H])n1cc2c(=O)n(CCC(=O)Nc3ccc(F)cc3F)c3cc(F)ccc3c2n1 [Example 19-4]	< 100 nM
[2H]C(C(=O)Nc1ccc(F)cc1F)C([2H])([2H])n1c(=O)c2cnn(C)c2c2ccc(F)cc21 (stereo not drawn) [Example 20-1]	< 100 nM
